The test system of this experiment is L1210 leukemia ip in BDF1 mice, survival T/C. Put plainly: NCI In Vivo Anticancer Drug Screen. Data for tumor model L1210 Leukemia (intraperitoneal) in B6D2F1 (BDF1) mice. As to conditions: endpoint: mean survival time, higher = longer survival. In a few lines:
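Mice bearing the transplanted tumor received compound or vehicle. Survival of the treated group was divided by that of the vehicle-treated control group to give the ratio.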

Setting [1] is: dose: 100.0 mg/kg/injection, schedule: Q01DX001 (ip), vehicle: saline.
Where [2] appears, read: dose: 200.0 mg/kg/injection, schedule: Q01DX001 (ip), vehicle: saline.
Setting [3] is: dose: 400.0 mg/kg/injection, schedule: Q01DX001 (ip), vehicle: saline.
Setting [4] is: dose: 100.0 mg/kg/injection, schedule: Q01DX009 (ip), vehicle: saline with Tween-80.
The mark [5] stands for this setting: dose: 200.0 mg/kg/injection, schedule: Q01DX009 (ip), vehicle: saline with Tween-80.
Where [6] appears, read: dose: 100.0 mg/kg/injection, schedule: Q04DX003 (ip), vehicle: saline.
[7] abbreviates: dose: 200.0 mg/kg/injection, schedule: Q04DX003 (ip), vehicle: saline.
The mark [8] stands for this setting: dose: 400.0 mg/kg/injection, schedule: Q04DX003 (ip), vehicle: saline.
Where [9] appears, read: dose: 100.0 mg/kg/injection, schedule: Q04DX003 (ip), vehicle: acetone.
Setting [10] is: dose: 200.0 mg/kg/injection, schedule: Q04DX003 (ip), vehicle: acetone.
[11] abbreviates: dose: 400.0 mg/kg/injection, schedule: Q04DX003 (ip), vehicle: acetone.
[12] abbreviates: dose: 25.0 mg/kg/injection, schedule: Q01DX009 (ip), vehicle: saline with Tween-80.
Setting [13] is: dose: 50.0 mg/kg/injection, schedule: Q01DX009 (ip), vehicle: saline with Tween-80.
[14] abbreviates: dose: 100.0 mg/kg/injection, schedule: Q04DX003 (ip), vehicle: Klucel (hydroxypropylcellulose) (HPC).
Where [15] appears, read: dose: 200.0 mg/kg/injection, schedule: Q04DX003 (ip), vehicle: Klucel (hydroxypropylcellulose) (HPC).
[16] abbreviates: dose: 400.0 mg/kg/injection, schedule: Q04DX003 (ip), vehicle: Klucel (hydroxypropylcellulose) (HPC).

Where “and” joins values, the source holds several entries; their conditions need not be identical. Identical values can stand only once. Toxic doses and inconclusive results are not listed.

On to `O=S1(=O)C2CCCCCC2(N2CCOCC2)C1c1ccccc1` (stereo not drawn), for which the T/C is 101 % of control (dose: 100.0 mg/kg/injection, schedule: Q04DX002 (ip), vehicle: Klucel (hydroxypropylcellulose) (HPC)); 97 % of control (dose: 200.0 mg/kg/injection, schedule: Q04DX002 (ip), vehicle: Klucel (hydroxypropylcellulose) (HPC)); 93 % of control (dose: 400.0 mg/kg/injection, schedule: Q04DX002 (ip), vehicle: Klucel (hydroxypropylcellulose) (HPC)).
Consider `COC(=O)C1C(O)CC2CCC1[N+]2(C)C` (stereo not drawn), for which the T/C was 96 % of control under setting [1] and 100 % of control under setting [2].
In the case of `CC1CN1P(=S)(Oc1ccccc1)N1CC1C` (stereo not drawn), the T/C is, setting by setting: (dose: 7.0 mg/kg/injection, schedule: Q01DX015 (ip), vehicle: carboxymethylcellulose (CMC)) 94 % of control; (dose: 13.0 mg/kg/injection, schedule: Q01DX015 (ip), vehicle: carboxymethylcellulose (CMC)) 98 % of control; (dose: 25.0 mg/kg/injection, schedule: Q01DX015 (ip), vehicle: carboxymethylcellulose (CMC)) 97 % of control; (dose: 50.0 mg/kg/injection, schedule: Q01DX015 (ip), vehicle: carboxymethylcellulose (CMC)) 91 % of control; under setting [1], 105 % of control; (dose: 100.0 mg/kg/injection, schedule: Q01DX015 (ip), vehicle: carboxymethylcellulose (CMC)) 103 % of control. For the same compound, the T/C was 102 % of control under setting [2]; 95 % of control (dose: 200.0 mg/kg/injection, schedule: Q01DX015 (ip), vehicle: saline); 100 % of control under setting [3]; 91 % of control (dose: 400.0 mg/kg/injection, schedule: Q01DX015 (ip), vehicle: saline); 95 % of control (dose: 800.0 mg/kg/injection, schedule: Q01DX001 (ip), vehicle: saline); 103 % of control (dose: 1600.0 mg/kg/injection, schedule: Q01DX001 (ip), vehicle: saline).
Take `Cc1ccc(S(=O)(=O)Nc2ccccc2)c(C(O)(c2ccccc2)c2ccccc2)c1`: the T/C runs as follows: under setting [4], 91 % of control; under setting [5], 96 % of control; (dose: 400.0 mg/kg/injection, schedule: Q01DX009 (ip), vehicle: saline with Tween-80) 93 % of control.
Take `CCCCN1C(=O)CCC1=O`: the T/C under setting [6] was 110 % of control, the T/C under setting [7] was 103 % of control and the T/C under setting [8] was 110 % of control.
Regarding `O=C(NCCNC(=O)c1cccnc1)c1ccncc1`, the T/C is 95 % of control under setting [9], 105 % of control under setting [10] and 106 % of control under setting [11].
Consider `O=C(Nc1ccc(C(=O)O)cc1)Nc1cccc(C(F)(F)F)c1`, for which the T/C runs as follows: under setting [4], 93 % of control; under setting [5], 87 % of control.
For the compound `COC(=O)C1C(C)CCCC1(C)c1ccccc1` (stereo not drawn), the T/C runs as follows: (dose: 100.0 mg/kg/injection, schedule: Q04DX002 (ip), vehicle: gum acacia) 103 % of control; (dose: 200.0 mg/kg/injection, schedule: Q04DX002 (ip), vehicle: gum acacia) 106 % of control; (dose: 400.0 mg/kg/injection, schedule: Q04DX002 (ip), vehicle: gum acacia) 95 % of control.
With `O=c1cc[nH]c2c([N+](=O)[O-])cccc12`, the T/C was 99 % of control under setting [1] and 96 % of control under setting [2].
Take `COc1ccc(/C=N/NC(=S)Nc2ccccn2)cc1OC`: the T/C is, setting by setting: under setting [12], 104 % of control; under setting [13], 93 % of control; under setting [4], 122 % of control.
For the compound `C/C(=C\C(=O)O)Cc1ccccc1` (tested in a mixture with another compound), the T/C is, setting by setting: (dose: 50.0 mg/kg/injection, schedule: Q04DX003 (ip), vehicle: other) 106 % of control; (dose: 100.0 mg/kg/injection, schedule: Q04DX003 (ip), vehicle: other) 115 % of control; (dose: 200.0 mg/kg/injection, schedule: Q04DX003 (ip), vehicle: other) 114 % of control; (dose: 400.0 mg/kg/injection, schedule: Q04DX003 (ip), vehicle: other) 103 % of control.
For `COc1cc(C(=O)N(C)C)nc(OC)n1`, the T/C reads like this: under setting [6], 106 % of control; under setting [7], 108 % of control; under setting [8], 106 % of control.
`CSc1cc(=O)n(C2OC(CO)C(O)C2O)c(=O)[nH]1` (stereo not drawn): the T/C was 101 % of control under setting [1]; 101 % of control (dose: 100.0 mg/kg/injection, schedule: Q01DX005 (ip), vehicle: saline); 118 % of control under setting [2]; 97 % of control (dose: 200.0 mg/kg/injection, schedule: Q01DX005 (ip), vehicle: saline); 104 % of control under setting [3].
As to `Cc1ccc(S(=O)(=O)OCCC2CCCCC2COS(=O)(=O)c2ccc(C)cc2)cc1` (stereo not drawn), the T/C is, setting by setting: (dose: 100.0 mg/kg/injection, schedule: Q01DX009 (ip), vehicle: saline) 100 % of control; under setting [14], 100 % of control; (dose: 200.0 mg/kg/injection, schedule: Q01DX009 (ip), vehicle: saline) 91 % of control; under setting [15], 99 % of control; (dose: 400.0 mg/kg/injection, schedule: Q01DX009 (ip), vehicle: saline) 96 % of control; under setting [16], 94 % of control.
Turning to `Cc1ccc(S(=O)(=O)c2ccc(Cl)cc2)cc1`, the T/C by setting is: under setting [9], 110 % of control; under setting [10], 110 % of control; under setting [11], 109 % of control.
Turning to `CCCCNC(=O)N(CC)C(=NCC)c1ccc(NC(=O)c2ccc(C(=O)Nc3ccc(C(=NCC)N(CC)C(=O)NCCCC)cc3)cc2)cc1`, the T/C is, setting by setting: (dose: 3.12 mg/kg/injection, schedule: Q01DX015 (ip), vehicle: methylcellulose (MC)) 109 % of control; (dose: 6.25 mg/kg/injection, schedule: Q01DX015 (ip), vehicle: methylcellulose (MC)) 121 % of control; (dose: 12.5 mg/kg/injection, schedule: Q01DX015 (ip), vehicle: methylcellulose (MC)) 178 % of control; (dose: 25.0 mg/kg/injection, schedule: Q01DX015 (ip), vehicle: methylcellulose (MC)) 120 % of control.
Turning to `CC(=O)OC1=C(c2c(C)cc(C)c(Br)c2C)C(=O)C(OC(C)=O)=C(c2c(C)cc(C)c(Br)c2C)C1=O`, the T/C is 104 % of control under setting [14], 100 % of control under setting [15] and 98 % of control under setting [16].
Consider `O=C1c2ccccc2C(=O)C1c1nc2ccccc2cc1O`, for which the T/C is 94 % of control (dose: 12.5 mg/kg/injection, schedule: Q01DX009 (ip), vehicle: saline with Tween-80); 96 % of control (dose: 12.5 mg/kg/injection, schedule: Q04DX002 (ip), vehicle: saline with Tween-80); 96 % of control and 102 % of control under setting [12]; 104 % of control (dose: 25.0 mg/kg/injection, schedule: Q04DX002 (ip), vehicle: saline with Tween-80); 102 % of control under setting [13]; 89 % of control (dose: 50.0 mg/kg/injection, schedule: Q04DX002 (ip), vehicle: saline with Tween-80). Further, the T/C runs as follows: (dose: 115.0 mg/kg/injection, schedule: Q01DX009 (ip), vehicle: saline with Tween-80) 93 % of control; (dose: 170.0 mg/kg/injection, schedule: Q01DX009 (ip), vehicle: saline with Tween-80) 100 % of control.
With `COC1CCCCC1Br` (stereo not drawn), the T/C is 104 % of control (dose: 100.0 mg/kg/injection, schedule: Q01DX009 (ip), vehicle: Klucel (hydroxypropylcellulose) (HPC)); 98 % of control (dose: 200.0 mg/kg/injection, schedule: Q01DX009 (ip), vehicle: Klucel (hydroxypropylcellulose) (HPC)); 98 % of control (dose: 400.0 mg/kg/injection, schedule: Q01DX009 (ip), vehicle: Klucel (hydroxypropylcellulose) (HPC)).
For `O=C(Nc1ccc(C2=NCCN2)cc1)C(=O)Nc1ccc(C2=NCCN2)cc1`, the T/C was 101 % of control (dose: 15.0 mg/kg/injection, schedule: Q01DX Z (ip), vehicle: saline); 118 % of control (dose: 30.0 mg/kg/injection, schedule: Q01DX Z (ip), vehicle: saline); 124 % of control (dose: 60.0 mg/kg/injection, schedule: Q01DX Z (ip), vehicle: saline).

Source of the values: PubChem BioAssay AID248 (DTP/NCI, 2004).
